Results as given in ChEMBL document CHEMBL5376018 (RSC Med Chem, 2024).

How the values were obtained:
[1] = Selectivity index, ratio of CC50 for cytotoxicity against human H1-HeLa cells infected with 1 MOI human rhinovirus 16 to EC50 for antiviral activity against Human rhinovirus 16 infected in human H1-HeLa cells; format: toxicity, cell-based; settings: H1-HeLa cells infected with human rhinovirus 16, read-out: Ratio CC50/EC50
H1-HeLa = assay: cells; settings: Homo sapiens, 1 h
[2] = Selectivity index, ratio of CC50 for cytotoxicity against human H1-HeLa cells infected with 1 MOI human rhinovirus 14 to EC50 for antiviral activity against Human rhinovirus 14 infected in human H1-HeLa cells; format: toxicity, cell-based; settings: H1-HeLa cells infected with human rhinovirus 14, read-out: Ratio CC50/EC50
rhinovirus B14 = assay: Antiviral activity against Human rhinovirus 14 infected in human H1-HeLa cells incubated for 3 days measured by crystal violet staining based plaque counting analysis; settings: Rhinovirus B, 72 h
rhinovirus A16 = assay: Antiviral activity against Human rhinovirus 16 infected in human H1-HeLa cells incubated for 3 days measured by crystal violet staining based plaque counting analysis; settings: Rhinovirus A, 72 h
[3] = Selectivity index, ratio of CC50 for cytotoxicity against human H1-HeLa cells infected with 1 MOI human rhinovirus 21 to EC50 for antiviral activity against Human rhinovirus 21 infected in human H1-HeLa cells; format: toxicity, cell-based; settings: H1-HeLa cells infected with human rhinovirus 21, read-out: Ratio CC50/EC50
rhinovirus A21 = assay: Antiviral activity against Human rhinovirus A21 infected in human H1-HeLa cells incubated for 3 days measured by crystal violet staining based plaque counting analysis; settings: Rhinovirus A, 72 h

Row | EC50 (rhinovirus B14) [nM] | EC50 (rhinovirus A16) [nM] | EC50 (rhinovirus A21) [nM] | Structure (SMILES) | selectivity ratio [1] | CC50 (H1-HeLa) [nM] | selectivity ratio [2] | selectivity ratio [3]
1 | 1300 | 790 | 1500 | COCCNS(=O)(=O)c1cc(-c2sc(NC(=O)C(C)(C)C)nc2C)ccc1OC | > 25 | > 20000 | > 15 | > 13
2 | 4400 | 3300 | 9100 | COc1ccc(-c2sc(NC(=O)C(C)(C)C)nc2C)cc1S(=O)(=O)NCCNC(C)=O | > 6 | > 20000 | > 5 | > 2
3 | 1000 | 560 | 1800 | COc1ccc(-c2sc(NC(=O)C(C)(C)C)nc2C)cc1S(=O)(=O)NCCN1CCOCC1 | > 36 | > 20000 | > 20 | > 11

The next lines start with the compound.

Row | Structure (SMILES) | EC50 (rhinovirus B14) [nM] | EC50 (rhinovirus A16) [nM] | EC50 (rhinovirus A21) [nM] | selectivity ratio [1] | CC50 (H1-HeLa) [nM] | selectivity ratio [2] | selectivity ratio [3]
4 | CC(=O)Nc1nc(C)c(-c2ccc(Cl)c(S(=O)(=O)NCCO)c2)s1 | 770 | 840 | 1600 | 19 | 15800 | 21 | 10
5 | CCOC(=O)/C=C/[C@H](C[C@@H]1CCNC1=O)NC(=O)[C@@H](CC(=O)[C@@H](NC(=O)c1cc(C)on1)C(C)C)Cc1ccc(F)cc1 | 58 | 80 | 95 | – | > 100000 | – | –
6 | COc1ccc(-c2sc(NC(C)=O)nc2C)cc1S(=O)(=O)CCN1CCOCC1 | 1400 | 1300 | 3200 | > 15 | > 20000 | > 14 | > 6
7 | COc1ccc(-c2sc(NC(=O)C(C)(C)C)nc2C)cc1S(=O)(=O)CCc1ccncc1 | 1300 | 1000 | 1700 | > 13 | 12500 | > 10 | > 7
8 | COc1ccc(-c2sc(NC(=O)C(C)(C)C)nc2C)cc1S(=O)(=O)NCc1cccc(S(C)(=O)=O)c1 | 3800 | 2000 | 4500 | > 10 | > 20000 | > 5 | > 4
9 | COc1ccc(-c2sc(NC(C)=O)nc2C)cc1 | 14500 | 12000 | 17700 | > 2 | > 20000 | > 1 | > 1
